From patent US11053204B2, “Pyrimidinyloxy benzene derivatives as herbicides” (FMC Corporation, priority 2015, dated 2021)

Tests used:
Assay type in all cases: in vivo
[1] = tested on: foxtail, giant (giant foxtail, Setaria faberii); test: Test C postemergence, plant response rating; details: for Foxtail, Giant plant response rating: scale 0 to 100 (0 no effect, 100 complete control)
Summary of the method: (§1)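 Preemergence: seeds sown in loam–sand blend or silt loam and sprayed with test chemicals in a non-phytotoxic surfactant-containing solvent. Postemergence: potted plants at 2–18 cm (1–4-leaf stage) sprayed with the same formulation. After 13–15 d in greenhouse, visual rating versus controls on 0 (no effect) to 100 (complete control) scale.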

[2] = tested on: nutsedge, yellow (yellow nutsedge, Cyperus esculentus); test: Test C postemergence, plant response rating; details: for Nutsedge, Yellow plant response rating: scale 0 to 100 (0 no effect, 100 complete control)
Summary of the method: as §1

[3] = tested on: lambsquarters (Chenopodium album); test: Test C postemergence, plant response rating; details: for Lambsquarters plant response rating: scale 0 to 100 (0 no effect, 100 complete control)
Summary of the method: as §1

[4] = tested on: crabgrass, large (large crabgrass, Digitaria sanguinalis); test: Test C postemergence, plant response rating; details: for Crabgrass, Large plant response rating: scale 0 to 100 (0 no effect, 100 complete control)
Summary of the method: as §1

soybean (Glycine max) = test: Test C postemergence, plant response rating; details: for Soybean plant response rating: scale 0 to 100 (0 no effect, 100 complete control)
Summary of the method: as §1

[5] = tested on: wheat (winter wheat, Triticum aestivum); test: Test C postemergence, plant response rating; details: for Wheat plant response rating: 125 g ai/ha, scale 0 to 100 (0 no effect, 100 complete control)
Summary of the method: as §1

corn (Zea mays) = test: Test C postemergence, plant response rating; details: for Corn plant response rating: scale 0 to 100 (0 no effect, 100 complete control)
Summary of the method: as §1

[6] = tested on: oat, wild (wild oat Avena fatua); test: Test C postemergence, plant response rating; details: for Oat, Wild plant response rating: scale 0 to 100 (0 no effect, 100 complete control)
Summary of the method: as §1

[7] = tested on: chickweed (common chickweed, Stellaria media); test: Test C postemergence, plant response rating; details: for Chickweed plant response rating: scale 0 to 100 (0 no effect, 100 complete control)
Summary of the method: as §1

[8] = tested on: galium (catchweed bedstraw, Galium aparine); test: Test C postemergence, plant response rating; details: for Galium plant response rating: scale 0 to 100 (0 no effect, 100 complete control)
Summary of the method: as §1

[9] = tested on: ryegrass, Italian (Italian ryegrass, Lolium multiflorum); test: Test C postemergence, plant response rating; details: for Ryegrass, Italian plant response rating: scale 0 to 100 (0 no effect, 100 complete control)
Summary of the method: as §1

[10] = tested on: blackgrass (Alopecurus myosuroides); test: Test C postemergence, plant response rating; details: for Blackgrass plant response rating: scale 0 to 100 (0 no effect, 100 complete control)
Summary of the method: as §1

kochia (Kochia scoparia) = test: Test A preemergence, visual injury rating
Summary of the method: (§2)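 Compounds in non-phytotoxic solvent with surfactant applied as soil spray preemergence, or postemergence to plants 2-10 cm at one- to two-leaf stage, in loam/sand. After approximately 10 days in greenhouse, injury rated visually versus untreated controls, 0 (no effect) to 100 (complete control).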

[11] = tested on: barnyardgrass (Echinochloa crus-galli); test: Test A preemergence, visual injury rating
Summary of the method: as §2

[12] = tested on: pigweed (Amaranthus retroflexus); test: Test A preemergence, visual injury rating
Summary of the method: as §2

[13] = tested on: giant foxtail (Setaria faberii); test: Test A preemergence, visual injury rating
Summary of the method: as §2

[14] = tested on: ragweed (common ragweed, Ambrosia elatior); test: Test A preemergence, visual injury rating
Summary of the method: as §2

[15] = tested on: Italian ryegrass (Lolium multiflorum); test: Test A preemergence, visual injury rating
Summary of the method: as §2

[16] = 31 g ai/ha, 0 to 100 scale, 0 no effect, 100 complete control
[17] = 125 g ai/ha, 0 to 100 scale (0 no effect, 100 complete control)

N#CC(CCCC(F)(F)F)c1ccccc1Oc1ncc(Cl)cn1 (stereo not shown) [Compound 144]
65: Soybean plant response rating (soybean (Glycine max); 125 g ai/ha)
100: Plant response rating, Kochia (kochia (Kochia scoparia); [17]) | Plant response rating, Barnyardgrass [11, 17] | Plant response rating, Pigweed [12, 16] | Plant response rating, Pigweed [12, 17] | Plant response rating, Foxtail, Giant [13, 16] | Plant response rating, Foxtail, Giant [13, 17]
80: Plant response rating, Barnyardgrass [11, 16]
10: Plant response rating, Foxtail, Giant ([1]; 31 g ai/ha, scale 0 to 100) | Nutsedge, Yellow plant response rating ([2]; 62 g ai/ha) | Nutsedge, Yellow plant response rating ([2]; 125 g ai/ha) | Plant response rating, Crabgrass, Large ([4]; 16 g ai/ha, scale of 0 to 100) | Plant response rating, Ryegrass, Italian ([9]; 31 g ai/ha, scale 0 to 100) | Plant response rating, Blackgrass ([10]; 16 g ai/ha, scale of 0 to 100) | Plant response rating, Blackgrass ([10]; 31 g ai/ha, scale 0 to 100) | Plant response rating, Ragweed [14, 17]
70: Lambsquarters plant response rating ([3]; 62 g ai/ha) | Plant response rating, Galium ([8]; 31 g ai/ha, scale 0 to 100) | Plant response rating, Ryegrass, Italian [15, 17]
55: Plant response rating, Chickweed ([7]; 31 g ai/ha, scale 0 to 100)
40: Foxtail, Giant plant response rating ([1]; 125 g ai/ha) | Plant response rating, Lambsquarters ([3]; 16 g ai/ha, scale of 0 to 100)
0: Plant response rating, Nutsedge, Yellow ([2]; 16 g ai/ha, scale of 0 to 100) | Plant response rating, Nutsedge, Yellow ([2]; 31 g ai/ha, scale 0 to 100) | Plant response rating, Ragweed [14, 16]
20: Crabgrass, Large plant response rating ([4]; 62 g ai/ha) | Corn plant response rating (corn (Zea mays); 62 g ai/ha) | Plant response rating, Oat, Wild ([6]; 16 g ai/ha, scale of 0 to 100) | Ryegrass, Italian plant response rating ([9]; 125 g ai/ha) | Plant response rating, Ryegrass, Italian [15, 16]
30: Foxtail, Giant plant response rating ([1]; 62 g ai/ha) | Plant response rating, Soybean (soybean (Glycine max); 16 g ai/ha, scale of 0 to 100) | Plant response rating, Soybean (soybean (Glycine max); 31 g ai/ha, scale 0 to 100) | Plant response rating, Oat, Wild ([6]; 31 g ai/ha, scale 0 to 100) | Oat, Wild plant response rating ([6]; 62 g ai/ha)
75: Plant response rating, Lambsquarters ([3]; 31 g ai/ha, scale 0 to 100)
5: Plant response rating, Foxtail, Giant ([1]; 16 g ai/ha, scale of 0 to 100) | Plant response rating, Wheat ([5]; 16 g ai/ha, scale of 0 to 100) | Plant response rating, Wheat ([5]; 31 g ai/ha, scale 0 to 100) | Plant response rating, Ryegrass, Italian ([9]; 16 g ai/ha, scale of 0 to 100)
15: Wheat plant response rating [5] | Plant response rating, Corn (corn (Zea mays); 16 g ai/ha, scale of 0 to 100) | Plant response rating, Corn (corn (Zea mays); 31 g ai/ha, scale 0 to 100) | Ryegrass, Italian plant response rating ([9]; 62 g ai/ha) | Blackgrass plant response rating ([10]; 62 g ai/ha) | Blackgrass plant response rating ([10]; 125 g ai/ha)
85: Lambsquarters plant response rating ([3]; 125 g ai/ha) | Chickweed plant response rating ([7]; 62 g ai/ha) | Chickweed plant response rating ([7]; 125 g ai/ha) | Galium plant response rating ([8]; 62 g ai/ha)
90: Galium plant response rating ([8]; 125 g ai/ha) | Plant response rating, Kochia (kochia (Kochia scoparia); [16])
35: Oat, Wild plant response rating ([6]; 125 g ai/ha)
25: Plant response rating, Crabgrass, Large ([4]; 31 g ai/ha, scale 0 to 100) | Crabgrass, Large plant response rating ([4]; 125 g ai/ha) | Corn plant response rating (corn (Zea mays); 125 g ai/ha)
50: Soybean plant response rating (soybean (Glycine max); 62 g ai/ha) | Plant response rating, Chickweed ([7]; 16 g ai/ha, scale of 0 to 100) | Plant response rating, Galium ([8]; 16 g ai/ha, scale of 0 to 100)

O=C(CCC(F)(F)C(F)(F)F)c1c(Br)cccc1Oc1ncc(Cl)cn1 [Compound 110]
70: Plant response rating, Ryegrass, Italian [15, 17]
90: Plant response rating, Lambsquarters ([3]; 31 g ai/ha, scale 0 to 100) | Chickweed plant response rating ([7]; 125 g ai/ha) | Galium plant response rating ([8]; 125 g ai/ha)
20: Plant response rating, Crabgrass, Large ([4]; 31 g ai/ha, scale 0 to 100) | Plant response rating, Corn (corn (Zea mays); 31 g ai/ha, scale 0 to 100) | Corn plant response rating (corn (Zea mays); 62 g ai/ha) | Plant response rating, Oat, Wild ([6]; 16 g ai/ha, scale of 0 to 100) | Ryegrass, Italian plant response rating ([9]; 125 g ai/ha) | Blackgrass plant response rating ([10]; 62 g ai/ha)
10: Plant response rating, Foxtail, Giant ([1]; 16 g ai/ha, scale of 0 to 100) | Plant response rating, Foxtail, Giant ([1]; 31 g ai/ha, scale 0 to 100) | Plant response rating, Crabgrass, Large ([4]; 16 g ai/ha, scale of 0 to 100) | Plant response rating, Corn (corn (Zea mays); 16 g ai/ha, scale of 0 to 100) | Plant response rating, Ryegrass, Italian ([9]; 31 g ai/ha, scale 0 to 100) | Plant response rating, Blackgrass ([10]; 16 g ai/ha, scale 0 to 100) | Plant response rating, Kochia (kochia (Kochia scoparia); [16])
45: Oat, Wild plant response rating ([6]; 62 g ai/ha)
60: Crabgrass, Large plant response rating ([4]; 125 g ai/ha) | Plant response rating, Chickweed ([7]; 16 g ai/ha, scale of 0 to 100) | Plant response rating, Galium ([8]; 16 g ai/ha, scale of 0 to 100)
40: Plant response rating, Soybean (soybean (Glycine max); 16 g ai/ha, scale of 0 to 100) | Plant response rating, Soybean (soybean (Glycine max); 31 g ai/ha, scale 0 to 100) | Plant response rating, Barnyardgrass [11, 16] | Plant response rating, Pigweed [12, 16]
100: Plant response rating, Kochia (kochia (Kochia scoparia); [17]) | Barnyardgrass plant response rating [11, 17] | Plant response rating, Pigweed [12, 17] | Plant response rating, Foxtail, Giant [13, 17]
80: Plant response rating, Foxtail, Giant [13, 16]
95: Lambsquarters plant response rating ([3]; 62 g ai/ha) | Plant response rating, Chickweed ([7]; 31 g ai/ha, scale 0 to 100) | Chickweed plant response rating ([7]; 62 g ai/ha)
98: Lambsquarters plant response rating ([3]; 125 g ai/ha)
30: Plant response rating, Oat, Wild ([6]; 31 g ai/ha, scale 0 to 100)
55: Oat, Wild plant response rating ([6]; 125 g ai/ha)
0: Plant response rating, Nutsedge, Yellow ([2]; 16 g ai/ha, scale of 0 to 100) | Plant response rating, Ragweed [14, 16] | Plant response rating, Ragweed [14, 17] | Plant response rating, Ryegrass, Italian [15, 16]
15: Wheat plant response rating [5] | Corn plant response rating (corn (Zea mays); 125 g ai/ha) | Ryegrass, Italian plant response rating ([9]; 62 g ai/ha) | Plant response rating, Blackgrass ([10]; 31 g ai/ha, scale 0 to 100)
75: Plant response rating, Lambsquarters ([3]; 16 g ai/ha, scale of 0 to 100) | Plant response rating, Galium ([8]; 31 g ai/ha, scale 0 to 100) | Galium plant response rating ([8]; 62 g ai/ha)
35: Soybean plant response rating (soybean (Glycine max); 125 g ai/ha)
50: Soybean plant response rating (soybean (Glycine max); 62 g ai/ha)
5: Plant response rating, Nutsedge, Yellow ([2]; 31 g ai/ha, scale 0 to 100) | Nutsedge, Yellow plant response rating ([2]; 62 g ai/ha) | Nutsedge, Yellow plant response rating ([2]; 125 g ai/ha) | Plant response rating, Wheat ([5]; 16 g ai/ha, scale of 0 to 100) | Plant response rating, Wheat ([5]; 31 g ai/ha, scale 0 to 100) | Plant response rating, Ryegrass, Italian ([9]; 16 g ai/ha, scale of 0 to 100)
25: Foxtail, Giant plant response rating ([1]; 62 g ai/ha) | Foxtail, Giant plant response rating ([1]; 125 g ai/ha) | Crabgrass, Large plant response rating ([4]; 62 g ai/ha) | Blackgrass plant response rating ([10]; 125 g ai/ha)
